Our source for the EC50 and Kd values is ChEMBL document CHEMBL3046373, “Optimised expression and spectral analysis of the target enzyme CYP51 from Penicillium digitatum with possible new DMI fungicides” (Pest Manag Sci, 2010).

Values after ≈ are worked out from the molar mass of the structure shown.

One test concerns Penicillium digitatum. Kind of test: Antifungal activity against Penicillium digitatum after 48 hr. The class given is functional, organism-based.
Test [1] concerns the target T1, Cytochrome P450 14alpha-demethylase (Penicillium digitatum, UniProt A1XG20).
T1 sequence (A1XG20 whole entry): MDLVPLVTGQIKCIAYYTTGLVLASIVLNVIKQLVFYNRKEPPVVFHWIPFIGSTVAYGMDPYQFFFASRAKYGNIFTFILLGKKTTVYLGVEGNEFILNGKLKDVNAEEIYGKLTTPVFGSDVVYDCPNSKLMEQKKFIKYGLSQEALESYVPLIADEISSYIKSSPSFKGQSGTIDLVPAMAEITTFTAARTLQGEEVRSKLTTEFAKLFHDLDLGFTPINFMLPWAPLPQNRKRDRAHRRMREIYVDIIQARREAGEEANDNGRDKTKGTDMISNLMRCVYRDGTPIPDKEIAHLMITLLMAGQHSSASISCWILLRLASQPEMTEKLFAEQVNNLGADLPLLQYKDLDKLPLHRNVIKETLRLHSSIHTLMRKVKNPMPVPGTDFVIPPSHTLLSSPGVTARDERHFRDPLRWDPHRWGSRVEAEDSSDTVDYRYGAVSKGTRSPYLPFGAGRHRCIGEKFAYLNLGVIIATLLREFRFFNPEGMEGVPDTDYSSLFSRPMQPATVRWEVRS
Kind of test: Binding affinity to Penicillium digitatum recombinant N-terminal-His6 tagged CYP51 expressed in Escherichia coli BL21(DE3) by spectrophotometric analysis.

For the compound `Nc1nnc(CSCc2ccc(Cl)cc2)s1`, a half-maximal effect with Penicillium digitatum (EC50) was put at 7.88 µg/mL (≈ 29 µM). Moreover, the Kd (commonly the constant that tells how readily two partners part at equilibrium) in test [1] was found to be 642 nM.
In the same order, the values of `c1cc2c3c(cccc3c1)NC(c1cnc[nH]1)N2` are 38.6 µg/mL (≈ 163 µM) and 990 nM.
Take `NNc1ncncc1-c1ccccc1` [5-PHENYLPYRIMIDIN-4-YLHYDRAZINE]: the EC50 (usually the concentration needed to bring the measured effect to its halfway point) in the test with Penicillium digitatum came out at 10.1 µg/mL (≈ 54.2 µM). Besides, the Kd in test [1] amounted to 658 nM.
Regarding `COc1ccc2c(c1)SCC(N)=N2` [7-METHOXY-2H-BENZO[B][1,4]THIAZINE-3-AMINE], in the test with Penicillium digitatum, it took 1.18 µg/mL (≈ 6.07 µM) to reach a half-maximal effect (EC50). Further, the equilibrium dissociation constant (Kd) in test [1] came out at 268 nM.
For the compound `CC(C)(C)C(O)/C(=C\c1ccc(Cl)cc1Cl)n1cncn1` (stereo not given) [DINICONAZOLE], the dissociation constant (Kd) in test [1] was 120 nM.
With `CC(C)(C)C(=O)C(Oc1ccc(Cl)cc1)n1cncn1` (stereo not given) [TRIADIMEFON], in test [1], the Kd stood at 420 nM.
